PubChem BioAssay (NCI)
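Grown in 96-well plates, cells were treated for 48 hours with each compound at five concentrations. Insufficient inhibition: endpoint recorded as highest concentration tested. TGI: concentration producing complete growth inhibition.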

Tests used:
Test in all cases: NCI anticancer screen, dose series, 48 h
[1] = tested on: DMS 273 small cell lung
[2] = tested on: SN12C renal
[3] = tested on: XF 498 CNS
[4] = tested on: SK-MEL-28 melanoma
[5] = tested on: MALME-3M melanoma
[6] = tested on: RPMI-8226 leukemia
[7] = tested on: SF-539 CNS
[8] = tested on: SK-MEL-5 melanoma
[9] = tested on: OVCAR-5 ovarian
[10] = tested on: MOLT-4 leukemia
[11] = tested on: KM20L2 colon
[12] = tested on: LXFL 529 NSCLC
[13] = tested on: ACHN renal
[14] = tested on: OVCAR-3 ovarian
[15] = tested on: K-562 leukemia
[16] = tested on: SK-OV-3 ovarian
[17] = tested on: 786-0 renal
[18] = tested on: M14 melanoma
[19] = tested on: NCI-H226 lung
[20] = tested on: HL-60(TB) leukemia
[21] = tested on: SW-620 colon
[22] = tested on: IGROV1 ovarian
[23] = tested on: HCT-15 colon
[24] = tested on: OVCAR-8 ovarian
[25] = tested on: HT29 colon
[26] = tested on: UACC-257 melanoma
[27] = tested on: SNB-78 CNS
[28] = tested on: NCI-H23 lung
[29] = tested on: SNB-19 CNS
[30] = tested on: KM12 colon
[31] = tested on: HCC-2998 colon
[32] = tested on: NCI-H460 lung
[33] = tested on: SNB-75 CNS
[34] = tested on: U251 CNS
[35] = tested on: HOP-92 NSCLC
[36] = tested on: SF-268 CNS
[37] = tested on: RXF 393 renal
[38] = tested on: M19-MEL melanoma
[39] = tested on: DMS 114 small cell lung
[40] = tested on: CCRF-CEM leukemia
[41] = tested on: SF-295 CNS
[42] = tested on: UACC-62 melanoma
[43] = tested on: HCT-116 colon
[44] = tested on: HOP-18 NSCLC
[45] = tested on: LOX IMVI melanoma
[46] = tested on: SK-MEL-2 melanoma
[47] = tested on: SR leukemia
[48] = tested on: NCI-H522 lung
[49] = tested on: EKVX NSCLC
[50] = tested on: UO-31 renal
[51] = tested on: COLO 205 colon
[52] = tested on: TK-10 renal
[53] = tested on: CAKI-1 renal
[54] = tested on: OVCAR-4 ovarian
[55] = tested on: A549 NSCLC
[56] = tested on: HOP-62 NSCLC
[57] = tested on: DLD-1 colon
[58] = tested on: A498 renal
[59] = tested on: RXF-631 renal

With `COC1(OC)c2ccccc2C2(O)c3ccccc3C(=O)C12` (centres undefined) the TGI [1] was over 100 µM, the TGI [2] was over 100 µM and the TGI [3] was 58.8 µM. For the same compound, the TGI [4] was over 100 µM, the TGI [5] was over 100 µM and the TGI [6] was 62.5 µM. For the same compound, the TGI [7] was over 100 µM, the TGI [8] was 31.9 µM and the TGI [9] was over 100 µM. For the same compound, the TGI [10] was 80.9 µM, the TGI [11] was over 100 µM and the TGI [12] was over 100 µM. For the same compound, the TGI [13] was over 100 µM, the TGI [14] was over 100 µM and the TGI [15] was over 100 µM. It also gave a TGI [16] of over 100 µM, a TGI [17] of over 100 µM and a TGI [18] of over 100 µM. For the same compound, the TGI [19] was over 100 µM, the TGI [20] was 46 µM and the TGI [21] was over 100 µM. It also gave a TGI [22] of 67 µM, a TGI [23] of over 100 µM and a TGI [24] of over 100 µM. The TGI [25] was over 100 µM, the TGI [26] was 83.9 µM and the TGI [27] was over 100 µM. The TGI [28] was over 100 µM, the TGI [29] was over 100 µM and the TGI [30] was over 100 µM. It also gave a TGI [31] of over 100 µM, a TGI [32] of over 100 µM and a TGI [33] of over 100 µM. The TGI [34] was over 100 µM, the TGI [35] was over 100 µM and the TGI [36] was over 100 µM. It also gave a TGI [37] of over 100 µM, a TGI [38] of over 100 µM and a TGI [39] of over 100 µM. The TGI [40] was 84.5 µM, the TGI [41] was over 100 µM and the TGI [42] was over 100 µM. For the same compound, the TGI [43] was over 100 µM, the TGI [44] was over 100 µM and the TGI [45] was over 100 µM. It also gave a TGI [46] of over 100 µM, a TGI [47] of over 100 µM and a TGI [48] of 47 µM. It also gave a TGI [49] of over 100 µM, a TGI [50] of 86.8 µM and a TGI [51] of 27 µM. For the same compound, the TGI [52] was over 100 µM.

`O=c1c2cccnc2ncn1CCCN1CCOCC1` gave a TGI [1] of over 100 µM, a TGI [2] of over 100 µM and a TGI [3] of over 100 µM. The TGI [4] was over 100 µM, the TGI [5] was over 100 µM and the TGI [7] was over 100 µM. It also gave a TGI [8] of over 100 µM, a TGI [9] of over 100 µM and a TGI [11] of over 100 µM. The TGI [12] was over 100 µM, the TGI [13] was over 100 µM and the TGI [14] was over 100 µM. The TGI [15] was over 100 µM, the TGI [53] was over 100 µM and the TGI [16] was over 100 µM. For the same compound, the TGI [17] was over 100 µM, the TGI [18] was over 100 µM and the TGI [19] was over 100 µM. The TGI [21] was over 100 µM, the TGI [54] was over 100 µM and the TGI [22] was over 100 µM. The TGI [24] was over 100 µM, the TGI [25] was over 100 µM and the TGI [27] was over 100 µM. For the same compound, the TGI [28] was over 100 µM, the TGI [29] was over 100 µM and the TGI [30] was over 100 µM. The TGI [31] was over 100 µM, the TGI [32] was over 100 µM and the TGI [55] was over 100 µM. For the same compound, the TGI [56] was over 100 µM, the TGI [33] was over 100 µM and the TGI [34] was over 100 µM. The TGI [35] was over 100 µM, the TGI [36] was over 100 µM and the TGI [37] was over 100 µM. For the same compound, the TGI [38] was over 100 µM, the TGI [39] was over 100 µM and the TGI [40] was over 100 µM. It also gave a TGI [41] of over 100 µM, a TGI [42] of over 100 µM and a TGI [43] of over 100 µM. For the same compound, the TGI [45] was over 100 µM, the TGI [47] was over 100 µM and the TGI [48] was over 100 µM. For the same compound, the TGI [49] was over 100 µM, the TGI [50] was over 100 µM and the TGI [51] was over 100 µM. For the same compound, the TGI [52] was over 100 µM and the TGI [57] was over 100 µM.

`COC(=O)c1ccccc1N=Cc1ccc(N(CCC#N)S(=O)(=O)c2ccccc2)cc1` showed a TGI [1] of over 100 µM, a TGI [2] of over 100 µM and a TGI [3] of over 100 µM. The TGI [4] was over 100 µM, the TGI [5] was over 100 µM and the TGI [6] was over 100 µM. The TGI [7] was over 100 µM, the TGI [8] was over 100 µM and the TGI [9] was over 100 µM. The TGI [10] was over 100 µM, the TGI [11] was over 100 µM and the TGI [12] was over 100 µM. It also gave a TGI [13] of over 100 µM, a TGI [14] of over 100 µM and a TGI [15] of over 100 µM. For the same compound, the TGI [53] was over 100 µM, the TGI [16] was over 100 µM and the TGI [17] was over 100 µM. The TGI [18] was over 100 µM, the TGI [19] was over 100 µM and the TGI [20] was over 100 µM. It also gave a TGI [21] of over 100 µM, a TGI [54] of over 100 µM and a TGI [22] of over 100 µM. For the same compound, the TGI [23] was over 100 µM, the TGI [24] was over 100 µM and the TGI [25] was over 100 µM. It also gave a TGI [26] of over 100 µM, a TGI [27] of over 100 µM and a TGI [28] of over 100 µM. It also gave a TGI [29] of over 100 µM, a TGI [30] of over 100 µM and a TGI [32] of over 100 µM. For the same compound, the TGI [55] was over 100 µM, the TGI [56] was over 100 µM and the TGI [33] was over 100 µM. It also gave a TGI [34] of over 100 µM, a TGI [35] of over 100 µM and a TGI [58] of over 100 µM. The TGI [36] was over 100 µM, the TGI [37] was over 100 µM and the TGI [38] was over 100 µM. For the same compound, the TGI [40] was over 100 µM, the TGI [41] was over 100 µM and the TGI [42] was over 100 µM. It also gave a TGI [43] of over 100 µM, a TGI [59] of over 100 µM and a TGI [44] of over 100 µM. For the same compound, the TGI [45] was over 100 µM, the TGI [46] was over 100 µM and the TGI [47] was over 100 µM. For the same compound, the TGI [48] was over 100 µM, the TGI [49] was over 100 µM and the TGI [50] was over 100 µM. It also gave a TGI [51] of over 100 µM, a TGI [52] of over 100 µM and a TGI [57] of over 100 µM.

`Oc1ccccc1C=Nc1ccccc1N=Cc1ccccc1O` was tested, and the TGI [1] was over 100 µM, the TGI [2] was over 100 µM and the TGI [3] was over 100 µM. For the same compound, the TGI [4] was over 100 µM, the TGI [5] was over 100 µM and the TGI [6] was over 100 µM. It also gave a TGI [7] of over 100 µM, a TGI [8] of over 100 µM and a TGI [10] of over 100 µM. For the same compound, the TGI [11] was over 100 µM, the TGI [12] was over 100 µM and the TGI [13] was over 100 µM. For the same compound, the TGI [14] was over 100 µM, the TGI [15] was over 100 µM and the TGI [16] was over 100 µM. It also gave a TGI [17] of over 100 µM, a TGI [18] of over 100 µM and a TGI [19] of over 100 µM. The TGI [20] was 81.5 µM, the TGI [21] was over 100 µM and the TGI [22] was over 100 µM. It also gave a TGI [23] of over 100 µM, a TGI [24] of over 100 µM and a TGI [25] of over 100 µM. It also gave a TGI [26] of over 100 µM, a TGI [28] of over 100 µM and a TGI [29] of over 100 µM. For the same compound, the TGI [30] was over 100 µM, the TGI [31] was over 100 µM and the TGI [32] was over 100 µM. It also gave a TGI [55] of over 100 µM, a TGI [56] of over 100 µM and a TGI [34] of over 100 µM. It also gave a TGI [36] of over 100 µM, a TGI [38] of over 100 µM and a TGI [39] of over 100 µM. For the same compound, the TGI [40] was over 100 µM, the TGI [41] was over 100 µM and the TGI [43] was over 100 µM. For the same compound, the TGI [45] was over 100 µM, the TGI [47] was over 100 µM and the TGI [48] was 45.7 µM. The TGI [49] was over 100 µM, the TGI [51] was over 100 µM and the TGI [52] was over 100 µM.
